The source of these data is patent US11236129B2, “IL-17A binding peptides and medical uses thereof” (Dompe' Farmaceutici S.P.A., priority 2018, dated 2022).

In this assay the target is IL-17RA/IL17RC dimerization induced by IL-17A (Homo sapiens, UniProt Q16552). The assay is described as follows: IL-17RA/IL17RC dimerization assay in response to IL-17A (PathHunter Cytokine Receptor Assay). Type of assay: cell-based. The conditions noted are these: IL-17A at EC80; read-out: IC50 in IL-17RA/IL7RC dimerization assay. The essentials: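 PathHunter cells with IL-17RA and IL-17RC tagged for β-galactosidase complementation were preincubated 60 min with peptide (1% vehicle). IL-17A was then added at EC80 for 6–16 h at 37 °C, and chemiluminescence was read. Inhibition is relative to the EC80 and vehicle controls.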
Chain of IL-17RA/IL17RC dimerization induced by IL-17A (Q16552 24-155): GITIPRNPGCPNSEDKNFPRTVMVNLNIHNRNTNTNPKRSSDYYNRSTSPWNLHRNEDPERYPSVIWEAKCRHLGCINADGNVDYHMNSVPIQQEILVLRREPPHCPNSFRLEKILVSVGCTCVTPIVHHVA

Residues, ends and D or L forms follow the SMILES beside them.

Regarding `CC(=O)N[C@H](C(=O)N[C@@H](CCCNC(=N)N)C(=O)N[C@@H](Cc1ccccc1)C(=O)N[C@@H](CCC(N)=O)C(=O)N[C@@H](Cc1ccccc1)C(=O)NCC(=O)N[C@@H](CCC(N)=O)C(=O)N[C@@H](CCC(=O)O)C(=O)N[C@@H](Cc1c[nH]c2ccccc12)C(=O)N[C@@H](Cc1ccc(O)cc1)C(=O)N[C@@H](CC(N)=O)C(=O)N[C@@H](Cc1ccccc1)C(=O)N[C@@H](Cc1ccccc1)C(=O)N[C@@H](CCCNC(=N)N)C(=O)N[C@@H](CCCNC(=N)N)C(N)=O)C(C)C` [SEQ ID NO: 155] (Ac-VRFQFGQEWYNFFRR-NH2), the IC50 is below 0.5 µM. In the case of `CC[C@H](C)[C@H](NC(=O)[C@@H](NC(=O)[C@@H](NC(=O)[C@H](Cc1c[nH]cn1)NC(=O)[C@@H](NC(=O)CNC(=O)[C@H](C)NC(=O)CNC(=O)[C@@H]1CCCN1C(=O)[C@@H](NC(=O)CNC(=O)[C@H](C)NC(=O)CNC(=O)[C@@H]1CCCN1C(=O)[C@@H](NC(C)=O)C(C)C)C(C)C)[C@@H](C)CC)C(C)C)[C@@H](C)O)C(N)=O` [SEQ ID NO: 156] (Ac-VPGAGVPGAGIHVTI-NH2), the IC50 was below 0.5 µM. For the molecule `CC[C@H](C)[C@H](NC(=O)CNC(=O)[C@H](C)NC(=O)CNC(=O)[C@@H]1CCCN1C(=O)[C@@H](NC(=O)CNC(=O)[C@H](C)NC(=O)CNC(=O)[C@@H]1CCCN1C(=O)[C@@H](NC(C)=O)C(C)C)C(C)C)C(=O)N[C@@H](Cc1c[nH]cn1)C(=O)N[C@H](C(=O)N[C@H](C(=O)N[C@H](C(=O)N1CCC[C@H]1C(=O)N[C@@H](C)C(N)=O)[C@@H](C)CC)[C@@H](C)O)C(C)C` [SEQ ID NO: 157] (Ac-VPGAGVPGAGIHVTIPA-NH2), the IC50 is below 0.5 µM.

On to `CC[C@H](C)[C@H](NC(=O)[C@H](Cc1c[nH]c2ccccc12)NC(=O)[C@H](CC(=O)O)NC(=O)[C@H](Cc1c[nH]c2ccccc12)NC(=O)[C@H](CC(C)C)NC(=O)[C@H](CC(=O)O)NC(=O)[C@H](C)NC(=O)[C@@H]1CCCN1C(=O)[C@@H](NC(=O)[C@@H](NC(=O)[C@@H](NC(=O)[C@H](Cc1c[nH]cn1)NC(=O)[C@H](C)NC(C)=O)C(C)C)[C@@H](C)O)[C@@H](C)CC)C(=O)N[C@@H](CC(N)=O)C(=O)N[C@@H](CCCCN)C(N)=O` [SEQ ID NO: 158] (Ac-AHVTIPADLWDWINK-NH2), for which the IC50 was below 10 µM. In the case of `CC[C@H](C)[C@H](NC(=O)[C@H](Cc1c[nH]c2ccccc12)NC(=O)[C@H](CC(=O)O)NC(=O)[C@H](Cc1c[nH]c2ccccc12)NC(=O)[C@H](CC(C)C)NC(=O)[C@H](CC(=O)O)NC(=O)[C@H](C)NC(=O)[C@@H]1CCCN1C(=O)[C@@H](NC(=O)[C@@H](NC(=O)[C@@H](NC(=O)[C@H](Cc1c[nH]cn1)NC(=O)CNC(C)=O)C(C)C)[C@@H](C)O)[C@@H](C)CC)C(=O)N[C@@H](CC(N)=O)C(=O)N[C@@H](CCCCN)C(N)=O` [SEQ ID NO: 159] (Ac-GHVTIPADLWDWINK-NH2) it was below 10 µM. In the case of `CC[C@H](C)[C@H](NC(=O)[C@H](Cc1c[nH]c2ccccc12)NC(=O)[C@H](CC(=O)O)NC(=O)[C@H](Cc1c[nH]c2ccccc12)NC(=O)[C@H](CC(C)C)NC(=O)[C@H](CC(=O)O)NC(=O)[C@H](C)NC(=O)[C@@H]1CCCN1C(=O)[C@@H](NC(=O)[C@@H](NC(=O)[C@@H](NC(=O)[C@H](Cc1c[nH]cn1)NC(=O)[C@H](CC(C)C)NC(C)=O)C(C)C)[C@@H](C)O)[C@@H](C)CC)C(=O)N[C@@H](CC(N)=O)C(=O)N[C@@H](CCCCN)C(N)=O` [SEQ ID NO: 160] (Ac-LHVTIPADLWDWINK-NH2), the IC50 is below 10 µM. Take `CC[C@H](C)[C@H](NC(=O)[C@H](Cc1c[nH]c2ccccc12)NC(=O)[C@H](CC(=O)O)NC(=O)[C@H](Cc1c[nH]c2ccccc12)NC(=O)[C@H](CC(C)C)NC(=O)[C@H](CC(=O)O)NC(=O)[C@H](C)NC(=O)[C@@H]1CCCN1C(=O)[C@@H](NC(=O)[C@@H](NC(=O)[C@@H](NC(=O)[C@H](Cc1c[nH]cn1)NC(=O)[C@@H]1CCCN1C(C)=O)C(C)C)[C@@H](C)O)[C@@H](C)CC)C(=O)N[C@@H](CC(N)=O)C(=O)N[C@@H](CCCCN)C(N)=O` [SEQ ID NO: 161] (Ac-PHVTIPADLWDWINK-NH2): the IC50 is below 10 µM. In the case of `CC[C@H](C)[C@H](NC(C)=O)C(=O)N[C@@H](CCCNC(=N)N)C(=O)N[C@H](C(=O)N[C@H](C(=O)N[C@H](C(=O)N1CCC[C@H]1C(=O)N[C@@H](C)C(=O)N[C@@H](CC(=O)O)C(=O)N[C@@H](CC(C)C)C(=O)N[C@@H](Cc1c[nH]c2ccccc12)C(=O)N[C@@H](CC(=O)O)C(=O)N[C@@H](Cc1c[nH]c2ccccc12)C(=O)N[C@H](C(=O)N[C@@H](CC(N)=O)C(=O)N[C@@H](CCCCN)C(N)=O)[C@@H](C)CC)[C@@H](C)CC)[C@@H](C)O)C(C)C` [SEQ ID NO: 162] (Ac-IRVTIPADLWDWINK-NH2) it was below 10 µM; in that of `CC[C@H](C)[C@H](NC(C)=O)C(=O)N[C@@H](CCCCN)C(=O)N[C@H](C(=O)N[C@H](C(=O)N[C@H](C(=O)N1CCC[C@H]1C(=O)N[C@@H](C)C(=O)N[C@@H](CC(=O)O)C(=O)N[C@@H](CC(C)C)C(=O)N[C@@H](Cc1c[nH]c2ccccc12)C(=O)N[C@@H](CC(=O)O)C(=O)N[C@@H](Cc1c[nH]c2ccccc12)C(=O)N[C@H](C(=O)N[C@@H](CC(N)=O)C(=O)N[C@@H](CCCCN)C(N)=O)[C@@H](C)CC)[C@@H](C)CC)[C@@H](C)O)C(C)C` [SEQ ID NO: 163] (Ac-IKVTIPADLWDWINK-NH2), below 10 µM.

Regarding `CC[C@H](C)[C@H](NC(C)=O)C(=O)N[C@@H](CCC(=O)O)C(=O)N[C@H](C(=O)N[C@H](C(=O)N[C@H](C(=O)N1CCC[C@H]1C(=O)N[C@@H](C)C(=O)N[C@@H](CC(=O)O)C(=O)N[C@@H](CC(C)C)C(=O)N[C@@H](Cc1c[nH]c2ccccc12)C(=O)N[C@@H](CC(=O)O)C(=O)N[C@@H](Cc1c[nH]c2ccccc12)C(=O)N[C@H](C(=O)N[C@@H](CC(N)=O)C(=O)N[C@@H](CCCCN)C(N)=O)[C@@H](C)CC)[C@@H](C)CC)[C@@H](C)O)C(C)C` [SEQ ID NO: 164] (Ac-IEVTIPADLWDWINK-NH2), the IC50 is below 10 µM.

Take `CC[C@H](C)[C@H](NC(C)=O)C(=O)N[C@@H](CCC(N)=O)C(=O)N[C@H](C(=O)N[C@H](C(=O)N[C@H](C(=O)N1CCC[C@H]1C(=O)N[C@@H](C)C(=O)N[C@@H](CC(=O)O)C(=O)N[C@@H](CC(C)C)C(=O)N[C@@H](Cc1c[nH]c2ccccc12)C(=O)N[C@@H](CC(=O)O)C(=O)N[C@@H](Cc1c[nH]c2ccccc12)C(=O)N[C@H](C(=O)N[C@@H](CC(N)=O)C(=O)N[C@@H](CCCCN)C(N)=O)[C@@H](C)CC)[C@@H](C)CC)[C@@H](C)O)C(C)C` [SEQ ID NO: 165] (Ac-IQVTIPADLWDWINK-NH2): the IC50 is below 10 µM.

`CC[C@H](C)[C@H](NC(C)=O)C(=O)N[C@@H](Cc1ccc(O)cc1)C(=O)N[C@H](C(=O)N[C@H](C(=O)N[C@H](C(=O)N1CCC[C@H]1C(=O)N[C@@H](C)C(=O)N[C@@H](CC(=O)O)C(=O)N[C@@H](CC(C)C)C(=O)N[C@@H](Cc1c[nH]c2ccccc12)C(=O)N[C@@H](CC(=O)O)C(=O)N[C@@H](Cc1c[nH]c2ccccc12)C(=O)N[C@H](C(=O)N[C@@H](CC(N)=O)C(=O)N[C@@H](CCCCN)C(N)=O)[C@@H](C)CC)[C@@H](C)CC)[C@@H](C)O)C(C)C` [SEQ ID NO: 166] (Ac-IYVTIPADLWDWINK-NH2): the IC50 is below 10 µM.
